Measured values: US10618875B2 (priority 2017, dated 2020)
Structures can show the parent of a compound that is named as a salt.

Assays:
[1] = mouse, in vivo
[2] = in vivo
NCI-60 cell lines = test: cells; assay type: cell-based, human
[3] = tested on: Hep3B-luc human liver tumor; set-up: species or system BALB/c nude mice; conditions: mouse

SMILES | blood creatinine [1] | animals that died ([2]; male, C57BL/6, mouse) [%] | LD50 ([2]; mouse, po) [mpk] | delta of growth percent across all cell lines tested (NCI-60 cell lines) [%] | range of growth percent across all cell lines (NCI-60 cell lines) [%] | activity at 10 µM (NCI-60 cell lines; Homo sapiens, 48 h, read-out: mean growth percent of control across the NCI-60) [%] | inhibition at 10 µM (NCI-60 cell lines; Homo sapiens, read-out: growth inhibition in any of the NCI-60 cell lines) [%] | BLI (in vivo bioluminescence) of Hep3B-luc tumor [3]
O=[N+]([O-])c1ccc(O)c([N+](=O)[O-])c1 [DNP, 2,4-dinitrophenol] | raised blood creatinine | 50 | 100 | 28.44 | 44.43 | 98.4 | < 50 | 
CNC(=O)c1cc(Oc2ccc(NC(=O)Nc3ccc(Cl)c(C(F)(F)F)c3)cc2)ccn1 [Sorafenib, Sorafenib Tosylate] |  |  |  |  |  |  |  | showed a trend toward having an effects on decreasing BLI
